Experimental data from ChEMBL document CHEMBL5058646 (2022).

Legend:
[1] = biological target: Adenosine receptor A1 (Homo sapiens) (UniProt P30542); experiment: (§1) GPCRScan assay: inhibition of A1; parameters: radioligand conc. used [nm] 5.0, parental cells HEKT; settings: Compound concentration 10.0 uM
[2] = biological target: Adenosine receptor A1 (Homo sapiens, UniProt P30542); experiment: as §1; parameters: radioligand conc. used [nm] 5.0, parental cells HEKT
[3] = biological target: T1, Zinc finger protein 131 (Homo sapiens) (UniProt P52739); settings: SUD4, Compound concentration 1.0 uM
T1 sequence (whole entry): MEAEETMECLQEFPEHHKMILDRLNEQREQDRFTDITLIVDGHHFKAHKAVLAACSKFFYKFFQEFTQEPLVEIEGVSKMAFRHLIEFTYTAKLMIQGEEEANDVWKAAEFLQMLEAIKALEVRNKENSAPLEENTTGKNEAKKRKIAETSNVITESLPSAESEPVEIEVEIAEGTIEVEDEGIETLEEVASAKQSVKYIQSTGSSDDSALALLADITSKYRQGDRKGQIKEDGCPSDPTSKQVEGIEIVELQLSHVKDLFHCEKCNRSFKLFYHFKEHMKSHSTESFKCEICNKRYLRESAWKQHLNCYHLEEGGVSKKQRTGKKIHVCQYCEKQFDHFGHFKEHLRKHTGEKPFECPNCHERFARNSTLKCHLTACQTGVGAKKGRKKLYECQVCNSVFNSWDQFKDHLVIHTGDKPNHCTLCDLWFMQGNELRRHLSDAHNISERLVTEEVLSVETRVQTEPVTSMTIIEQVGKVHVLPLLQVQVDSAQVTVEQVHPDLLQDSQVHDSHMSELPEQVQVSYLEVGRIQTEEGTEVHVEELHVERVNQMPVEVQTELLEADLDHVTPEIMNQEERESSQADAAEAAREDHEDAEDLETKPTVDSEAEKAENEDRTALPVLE

[4] = biological target: Calcium/calmodulin-dependent protein kinase type 1G (Homo sapiens) (UniProt Q96NX5); experiment: CAMK1G SGC Tm panel (DSF); settings: Compound concentration 20.0 uM
Sequence of Calcium/calmodulin-dependent protein kinase type 1G (Homo sapiens) (Q96NX5 whole entry): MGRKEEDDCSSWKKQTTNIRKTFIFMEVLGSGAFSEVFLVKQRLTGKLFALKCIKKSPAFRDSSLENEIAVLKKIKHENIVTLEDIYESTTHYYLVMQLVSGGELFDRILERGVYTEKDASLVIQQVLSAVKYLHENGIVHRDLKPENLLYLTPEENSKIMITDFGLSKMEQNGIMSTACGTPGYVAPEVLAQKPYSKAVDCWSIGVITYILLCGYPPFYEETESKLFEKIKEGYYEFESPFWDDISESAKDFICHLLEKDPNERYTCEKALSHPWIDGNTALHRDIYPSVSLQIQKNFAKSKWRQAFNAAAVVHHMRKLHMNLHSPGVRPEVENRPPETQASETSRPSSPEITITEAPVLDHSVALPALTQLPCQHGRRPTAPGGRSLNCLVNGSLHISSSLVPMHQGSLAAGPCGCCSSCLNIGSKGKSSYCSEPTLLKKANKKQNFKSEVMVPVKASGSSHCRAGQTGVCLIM

[5] = biological target: D(1A) dopamine receptor (Homo sapiens) (UniProt P21728); settings: Compound concentration 10.0 uM
Sequence of D(1A) dopamine receptor (Homo sapiens) (P21728 whole entry): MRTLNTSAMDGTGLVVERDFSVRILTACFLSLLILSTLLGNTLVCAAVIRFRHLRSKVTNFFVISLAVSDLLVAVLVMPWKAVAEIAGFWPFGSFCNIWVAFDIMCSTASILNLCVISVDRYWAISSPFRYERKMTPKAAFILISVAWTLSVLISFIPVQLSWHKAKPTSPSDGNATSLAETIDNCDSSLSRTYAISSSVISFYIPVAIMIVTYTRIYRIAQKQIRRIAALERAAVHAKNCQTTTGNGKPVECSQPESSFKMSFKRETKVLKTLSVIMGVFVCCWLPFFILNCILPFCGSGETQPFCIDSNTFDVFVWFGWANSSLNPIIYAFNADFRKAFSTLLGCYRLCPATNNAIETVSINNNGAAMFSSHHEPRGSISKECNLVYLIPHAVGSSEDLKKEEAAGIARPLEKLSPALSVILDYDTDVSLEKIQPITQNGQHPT

[6] = biological target: SRSF protein kinase 1 (Homo sapiens) (UniProt Q96SB4); experiment: SRPK1 SGC Tm panel (DSF); settings: Compound concentration 20.0 uM
Sequence of SRSF protein kinase 1 (Homo sapiens) (Q96SB4 whole entry): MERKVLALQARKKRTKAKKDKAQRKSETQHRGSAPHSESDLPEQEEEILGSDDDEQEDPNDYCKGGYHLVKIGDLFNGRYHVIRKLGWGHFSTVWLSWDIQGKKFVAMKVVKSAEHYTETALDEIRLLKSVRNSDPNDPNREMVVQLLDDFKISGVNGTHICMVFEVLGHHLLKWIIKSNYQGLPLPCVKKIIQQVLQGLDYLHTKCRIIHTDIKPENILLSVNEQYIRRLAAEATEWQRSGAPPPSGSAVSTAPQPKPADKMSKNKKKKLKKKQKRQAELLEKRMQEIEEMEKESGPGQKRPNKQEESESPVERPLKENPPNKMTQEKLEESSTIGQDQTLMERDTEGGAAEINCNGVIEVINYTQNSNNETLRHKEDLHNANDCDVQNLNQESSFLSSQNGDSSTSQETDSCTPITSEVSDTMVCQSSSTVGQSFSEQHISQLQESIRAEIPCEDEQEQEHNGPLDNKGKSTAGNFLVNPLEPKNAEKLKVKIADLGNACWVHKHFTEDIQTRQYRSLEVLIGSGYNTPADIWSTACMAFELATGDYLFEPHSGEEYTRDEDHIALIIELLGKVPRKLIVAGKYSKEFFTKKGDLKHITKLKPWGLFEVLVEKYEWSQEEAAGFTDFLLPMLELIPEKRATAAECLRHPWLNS

[7] = biological target: B-cell lymphoma 6 protein (Homo sapiens, UniProt P41182); settings: OCI-Ly1, Compound concentration 1.0 uM
[8] = biological target: T2, Zinc finger and BTB domain-containing protein 40 (Homo sapiens) (UniProt Q9NUA8); settings: SUD4, Compound concentration 1.0 uM
T2 sequence (whole entry): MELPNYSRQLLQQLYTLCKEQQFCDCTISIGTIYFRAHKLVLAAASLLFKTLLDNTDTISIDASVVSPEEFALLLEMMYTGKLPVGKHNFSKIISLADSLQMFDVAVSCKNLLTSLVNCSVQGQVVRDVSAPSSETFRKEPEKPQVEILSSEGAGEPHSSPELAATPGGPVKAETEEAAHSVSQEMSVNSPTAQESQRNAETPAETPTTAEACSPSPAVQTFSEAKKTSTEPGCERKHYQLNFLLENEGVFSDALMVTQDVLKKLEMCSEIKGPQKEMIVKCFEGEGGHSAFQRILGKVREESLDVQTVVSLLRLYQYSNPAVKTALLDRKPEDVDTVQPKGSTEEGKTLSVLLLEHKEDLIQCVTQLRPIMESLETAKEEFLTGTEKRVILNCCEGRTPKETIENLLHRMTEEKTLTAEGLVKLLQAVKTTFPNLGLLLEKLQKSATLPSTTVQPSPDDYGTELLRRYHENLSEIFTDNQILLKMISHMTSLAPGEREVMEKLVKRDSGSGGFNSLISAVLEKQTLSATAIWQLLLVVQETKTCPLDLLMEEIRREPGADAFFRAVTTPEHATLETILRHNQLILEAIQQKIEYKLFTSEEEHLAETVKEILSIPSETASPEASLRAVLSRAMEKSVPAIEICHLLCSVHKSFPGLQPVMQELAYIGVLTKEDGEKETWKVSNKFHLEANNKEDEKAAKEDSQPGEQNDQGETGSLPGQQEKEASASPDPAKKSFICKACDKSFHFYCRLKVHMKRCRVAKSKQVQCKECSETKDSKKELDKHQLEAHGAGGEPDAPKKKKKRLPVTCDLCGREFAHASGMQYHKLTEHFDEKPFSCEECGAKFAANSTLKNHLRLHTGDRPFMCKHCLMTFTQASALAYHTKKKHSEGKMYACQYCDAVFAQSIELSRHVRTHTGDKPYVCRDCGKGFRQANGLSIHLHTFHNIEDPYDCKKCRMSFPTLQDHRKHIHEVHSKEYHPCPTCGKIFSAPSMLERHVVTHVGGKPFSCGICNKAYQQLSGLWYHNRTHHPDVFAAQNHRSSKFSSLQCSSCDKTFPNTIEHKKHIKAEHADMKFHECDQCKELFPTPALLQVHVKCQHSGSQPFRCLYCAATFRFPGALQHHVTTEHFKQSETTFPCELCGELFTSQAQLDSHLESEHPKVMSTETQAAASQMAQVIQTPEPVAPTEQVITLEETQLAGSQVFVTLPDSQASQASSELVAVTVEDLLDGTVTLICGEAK

[9] = biological target: 5-hydroxytryptamine receptor 1A (Homo sapiens) (UniProt P08908); settings: Compound concentration 10.0 uM
Sequence of 5-hydroxytryptamine receptor 1A (Homo sapiens) (P08908 whole entry): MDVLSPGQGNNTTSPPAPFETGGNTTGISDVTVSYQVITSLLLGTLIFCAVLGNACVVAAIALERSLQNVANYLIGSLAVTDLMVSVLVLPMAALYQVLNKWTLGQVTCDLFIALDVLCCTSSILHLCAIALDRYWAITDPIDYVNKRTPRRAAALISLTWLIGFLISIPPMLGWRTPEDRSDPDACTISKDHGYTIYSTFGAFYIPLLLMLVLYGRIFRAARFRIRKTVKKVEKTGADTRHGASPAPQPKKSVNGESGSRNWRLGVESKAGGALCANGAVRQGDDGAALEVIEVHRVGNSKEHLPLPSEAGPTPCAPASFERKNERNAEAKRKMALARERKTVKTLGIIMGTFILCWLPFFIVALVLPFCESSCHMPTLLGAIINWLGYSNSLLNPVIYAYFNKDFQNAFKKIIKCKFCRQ

[10] = biological target: Mitogen-activated protein kinase 15 (Homo sapiens) (UniProt Q8TD08); experiment: MAPK15 SGC Tm panel (DSF); settings: Compound concentration 20.0 uM
Sequence of Mitogen-activated protein kinase 15 (Homo sapiens) (Q8TD08 whole entry): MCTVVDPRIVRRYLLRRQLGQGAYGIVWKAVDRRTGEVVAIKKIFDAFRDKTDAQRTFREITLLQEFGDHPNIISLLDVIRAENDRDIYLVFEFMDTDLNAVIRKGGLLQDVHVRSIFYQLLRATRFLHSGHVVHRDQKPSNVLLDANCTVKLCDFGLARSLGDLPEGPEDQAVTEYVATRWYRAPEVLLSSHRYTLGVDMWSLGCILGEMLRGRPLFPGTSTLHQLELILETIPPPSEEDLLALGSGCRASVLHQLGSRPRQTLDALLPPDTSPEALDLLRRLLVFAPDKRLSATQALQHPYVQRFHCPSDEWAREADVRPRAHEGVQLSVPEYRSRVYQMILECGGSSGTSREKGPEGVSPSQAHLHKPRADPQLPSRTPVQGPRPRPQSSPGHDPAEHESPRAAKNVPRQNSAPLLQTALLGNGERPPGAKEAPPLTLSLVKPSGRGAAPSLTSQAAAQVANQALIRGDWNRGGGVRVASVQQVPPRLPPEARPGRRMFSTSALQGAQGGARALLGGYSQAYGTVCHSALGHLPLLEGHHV

[11] = biological target: MAP kinase-activated protein kinase 2 (Homo sapiens) (UniProt P49137); experiment: MAPKAPK2 SGC Tm panel (DSF); settings: Compound concentration 20.0 uM
Sequence of MAP kinase-activated protein kinase 2 (Homo sapiens) (P49137 whole entry, looked up, the tested form may be a part): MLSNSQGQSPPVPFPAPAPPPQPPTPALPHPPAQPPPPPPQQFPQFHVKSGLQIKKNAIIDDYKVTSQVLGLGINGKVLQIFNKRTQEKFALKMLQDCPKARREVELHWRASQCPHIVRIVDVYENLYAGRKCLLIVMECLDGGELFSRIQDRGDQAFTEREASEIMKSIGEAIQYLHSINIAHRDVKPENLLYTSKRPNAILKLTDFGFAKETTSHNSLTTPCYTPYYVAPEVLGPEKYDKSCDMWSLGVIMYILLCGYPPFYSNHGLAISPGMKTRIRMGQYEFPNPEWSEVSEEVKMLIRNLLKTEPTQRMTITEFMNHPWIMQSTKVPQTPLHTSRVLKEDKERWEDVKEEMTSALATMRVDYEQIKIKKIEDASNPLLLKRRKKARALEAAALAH

[12] = biological target: T3, Zinc finger and BTB domain-containing protein 44 (Homo sapiens) (UniProt Q8NCP5); settings: OCI-Ly1, Compound concentration 1.0 uM
T3 sequence (whole entry): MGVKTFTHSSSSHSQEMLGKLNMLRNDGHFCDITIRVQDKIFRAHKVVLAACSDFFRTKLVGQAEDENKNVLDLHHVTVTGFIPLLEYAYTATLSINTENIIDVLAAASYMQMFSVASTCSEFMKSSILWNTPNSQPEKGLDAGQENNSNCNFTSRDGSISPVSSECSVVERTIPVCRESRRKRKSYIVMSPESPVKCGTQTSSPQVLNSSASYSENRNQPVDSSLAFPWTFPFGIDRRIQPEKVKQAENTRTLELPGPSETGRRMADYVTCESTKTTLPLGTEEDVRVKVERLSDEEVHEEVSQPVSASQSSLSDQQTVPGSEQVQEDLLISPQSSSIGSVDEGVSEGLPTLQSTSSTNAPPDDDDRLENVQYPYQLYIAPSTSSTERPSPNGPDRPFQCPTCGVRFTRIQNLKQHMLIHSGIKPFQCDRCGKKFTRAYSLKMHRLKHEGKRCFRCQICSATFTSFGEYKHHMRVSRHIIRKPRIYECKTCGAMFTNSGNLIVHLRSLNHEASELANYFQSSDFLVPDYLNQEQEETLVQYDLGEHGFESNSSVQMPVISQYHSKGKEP

Sequence of Adenosine receptor A1 (P30542 whole entry): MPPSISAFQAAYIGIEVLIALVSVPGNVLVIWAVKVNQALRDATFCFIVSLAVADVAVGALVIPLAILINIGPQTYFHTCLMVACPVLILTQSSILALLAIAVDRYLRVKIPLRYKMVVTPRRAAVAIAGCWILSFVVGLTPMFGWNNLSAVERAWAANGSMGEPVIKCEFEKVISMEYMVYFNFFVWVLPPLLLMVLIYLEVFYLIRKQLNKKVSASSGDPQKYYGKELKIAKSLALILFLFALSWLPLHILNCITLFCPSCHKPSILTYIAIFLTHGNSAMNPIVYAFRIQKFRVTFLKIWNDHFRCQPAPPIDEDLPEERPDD
Sequence of Adenosine receptor A1 (Homo sapiens) (P30542 whole entry): as above

inhibition [1]: 93.1%
Ki ([2]; read-out: Ki): 1630 nM
Ki ([2]; read-out: pKi (converted)): 1100 nM
LogFC [3]: -0.044
Tm [4]: 44 °C
inhibition [5]: 27.3%
Tm [6]: 45 °C
LogFC [7]: -2.79
LogFC [8]: -0.00123
inhibition [9]: 5.99%
Tm [11]: 46 °C
LogFC [12]: 0.423
SMILES: C[C@@H]1CN(c2ncc(Cl)c(Nc3ccc4c(c3)n(CCC(C)(C)O)c(=O)n4C)n2)C[C@H](C)C1(F)F
Tm [10]: 50 °C
